4 compounds from patent US20240082416A1, “AMATOXIN ANALOGS AND USES THEREOF” (THE UNIVERSITY OF BRITISH COLUMBIA, priority 2020, published 2024) can be followed below.

The data set concerns CHO cells. Nature of the data set: Viability assay against CHO cells (MTT colorimetric assay). In kind it is cell-based, Chinese hamster. Conditions: 72 h, replicates n = 1, 2, 3. (Formazan colour is commonly taken as a measure of viable cells.)

Values joined by “and” are separate entries in the source; they are usually repeats but may differ in a detail not shown here. Identical values can stand only once. Starred links: 1 amine or outer side, 2 acyl side, 3 side chain; linkers in the order of their positions; H or OH if unused. Positions of bridges follow the written chain, without caps; N, C: chain ends. Non-standard residues stand in square brackets, D forms with d. Residues, ends and D or L forms follow the SMILES beside them. Trp(2-yl) = O=C([C@H](Cc1c([*:3])[nH]c2ccccc12)N[*:1])[*:2]; Pro(trans-4-guanidino) = N=C(N)N[C@H]1CN[C@H](C(=O)O)C1; Pro(4R-SH) = O=C([C@@H]1C[C@@H](S[*:3])CN1[*:1])[*:2]; Ile(4R-OH,5-OH) = C[C@H]([C@H](N)C(=O)O)[C@@H](O)CO; X1 = N#C[C@@H]1C[C@@H](C(=O)[*:2])N([*:1])C1; Pro(4R-NH2) = N[C@H]1CN[C@H](C(=O)O)C1

On to `CC[C@H](C)[C@@H]1NC(=O)CNC(=O)[C@@H]2Cc3c([nH]c4ccccc34)SC[C@H](NC(=O)CNC1=O)C(=O)N[C@@H](CC(N)=O)C(=O)N1C[C@H](C#N)C[C@H]1C(=O)N[C@@H]([C@@H](C)[C@@H](O)CO)C(=O)N2` [Compound 4, CN-Pro-amanitin] (cyclo(CN[X1][Ile(4R-OH,5-OH)][Trp(2-yl)]GIG); thioether 1-5), for which the “% viable cells” value (1e-005 M, listed as CN-Pro-amanitin (4)) was 90%; the “% viable cells” value (1.25e-006 M, listed as CN-Pro-amanitin (4)) is 91% and 92%; the “% viable cells” value (1.56e-007 M, listed as CN-Pro-amanitin (4)) is 93% and 87%; the “% viable cells” value (2e-005 M, listed as CN-Pro-amanitin (4)) was 118% and 108%; the “% viable cells” value (2.5e-006 M, listed as CN-Pro-amanitin (4)) was 91% and 87%; the “% viable cells” value (3.125e-007 M, listed as CN-Pro-amanitin (4)) is 92% and 90%. The “% viable cells” value is 92% and 90% (5e-006 M, listed as CN-Pro-amanitin (4)); 89% and 92% (6.25e-007 M, listed as CN-Pro-amanitin (4)).

For `CC[C@H](C)[C@@H]1NC(=O)CNC(=O)[C@@H]2Cc3c([nH]c4ccccc34)SC[C@H](NC(=O)CNC1=O)C(=O)N[C@@H](CC(N)=O)C(=O)N1C[C@H](S)C[C@H]1C(=O)N[C@@H]([C@@H](C)[C@@H](O)CO)C(=O)N2` [Compound 5, SH-Pro-amanitin] (cyclo(CN[Pro(4R-SH)][Ile(4R-OH,5-OH)][Trp(2-yl)]GIG); thioether 1-5), the “% viable cells” value by setting is: (1e-005 M, listed as SH-Pro-amanitin (5)) 95%; (1.25e-006 M, listed as SH-Pro-amanitin (5)) 92%; (2e-005 M, listed as SH-Pro-amanitin (5)) 97%; (2.5e-006 M, listed as SH-Pro-amanitin (5)) 99%; (3.125e-007 M, listed as SH-Pro-amanitin (5)) 90%; (5e-006 M, listed as SH-Pro-amanitin (5)) 90% and 96%. Further, the “% viable cells” value was 92% and 95% (6.25e-007 M, listed as SH-Pro-amanitin (5)); 89% (7.8e-008 M, listed as SH-Pro-amanitin (5)).

Take `CC[C@H](C)[C@@H]1NC(=O)CNC(=O)[C@@H]2Cc3c([nH]c4ccccc34)SC[C@H](NC(=O)CNC1=O)C(=O)N[C@@H](CC(N)=O)C(=O)N1C[C@H](N)C[C@H]1C(=O)N[C@@H]([C@@H](C)[C@@H](O)CO)C(=O)N2` [Compound 6, NH2-Pro-amanitin] (cyclo(CN[Pro(4R-NH2)][Ile(4R-OH,5-OH)][Trp(2-yl)]GIG); thioether 1-5): the “% viable cells” value by setting is: (1e-005 M, listed as NH2-Pro-amanitin (6)) 81% and 83%; (1.25e-006 M, listed as NH2-Pro-amanitin (6)) 88%; (1.56e-007 M, listed as NH2-Pro-amanitin (6)) 97%; (2e-005 M, listed as NH2-Pro-amanitin (6)) 89% and 85%; (2.5e-006 M, listed as NH2-Pro-amanitin (6)) 85% and 82%; (5e-006 M, listed as NH2-Pro-amanitin (6)) 79% and 84%. Further, the “% viable cells” value reads like this: (6.25e-007 M, listed as NH2-Pro-amanitin (6)) 85%; (7.8e-008 M, listed as NH2-Pro-amanitin (6)) 89%.

In the case of `CC[C@H](C)[C@@H]1NC(=O)CNC(=O)[C@@H]2Cc3c([nH]c4ccccc34)SC[C@H](NC(=O)CNC1=O)C(=O)N[C@@H](CC(N)=O)C(=O)N1C[C@H](NC(=N)N)C[C@H]1C(=O)N[C@@H]([C@@H](C)[C@@H](O)CO)C(=O)N2` [Compound 7, Gdn-Pro-amanitin] (cyclo(CN[Pro(trans-4-guanidino)][Ile(4R-OH,5-OH)][Trp(2-yl)]GIG); thioether 1-5), the “% viable cells” value was 102% (1e-005 M, listed as Gdn-Pro-amanitin (7)); 86% (1.25e-006 M, listed as Gdn-Pro-amanitin (7)); 91% and 80% (1.56e-007 M, listed as Gdn-Pro-amanitin (7)); 101% (2e-005 M, listed as Gdn-Pro-amanitin (7)); 82% (2.5e-006 M, listed as Gdn-Pro-amanitin (7)); 86% (3.125e-007 M, listed as Gdn-Pro-amanitin (7)). The “% viable cells” value was 83% and 84% (6.25e-007 M, listed as Gdn-Pro-amanitin (7)); 92% (7.8e-008 M, listed as Gdn-Pro-amanitin (7)).
